Experimental data from patent publication US5225528A, “Cyclic hexapeptide oxytocin antagonists” (priority 1990, dated 1993).
Where two headings read alike, the source gives them in different places. Numbered stars: 1 amine (or outer) side, 2 acyl side, 3 side chain; on linkers, the order of the positions; unused ones are H or OH. Square brackets hold non-standard residues; d marks the D form. Peptide text beside a SMILES is read from it. * marks the point of attachment. dPip(4-aza,4-Cbz) = O=C(O)[C@H]1CN(C(=O)OCc2ccccc2)CCN1; X10 = O=C(O)CN1CCN([*:1])[C@H](C(=O)[*:2])C1; dPhe(4-NH2) = Nc1ccc(C[C@@H](N)C(=O)O)cc1; dPiz(1,6-dehydro) = O=C(O)[C@H]1CCC=NN1; d1Nal = N[C@H](Cc1cccc2ccccc12)C(=O)O; dNMehPhe = CN[C@H](CCc1ccccc1)C(=O)O; Ethyl(2-morpholino) = C1CN(CC*)CCO1; dNMeY = CN[C@H](Cc1ccc(O)cc1)C(=O)O; Ethylenediamine = C(CN[*:2])N[*:1]; d(hPhe) = N[C@H](CCc1ccccc1)C(=O)O; NMeI = CC[C@H](C)[C@H](NC)C(=O)O; dNMeF = CN[C@H](Cc1ccccc1)C(=O)O; hPhe = N[C@@H](CCc1ccccc1)C(=O)O; Pip = O=C(O)[C@@H]1CCCCN1; dPip = O=C(O)[C@H]1CCCCN1; Boc = CC(C)(C)OC(=O)*; Me2Gly = CN(C)CC(=O)*; Bn = c1ccc(C*)cc1

Experiments:
AVP-V2 sites = biological target: T1, AVP-V2 sites (Rattus norvegicus, UniProt Q00788); test: [^3 H]AVP binding to crude membrane preparation of male rat kidney medulla (AVP-V2 sites)
T1 construct: male rat liver (AVP-V1 sites) or kidney medulla (AVP-V2 sites); from tissue; host or cells: male rat kidney medulla, crude membranes
T1 sequence (Q00788 whole entry): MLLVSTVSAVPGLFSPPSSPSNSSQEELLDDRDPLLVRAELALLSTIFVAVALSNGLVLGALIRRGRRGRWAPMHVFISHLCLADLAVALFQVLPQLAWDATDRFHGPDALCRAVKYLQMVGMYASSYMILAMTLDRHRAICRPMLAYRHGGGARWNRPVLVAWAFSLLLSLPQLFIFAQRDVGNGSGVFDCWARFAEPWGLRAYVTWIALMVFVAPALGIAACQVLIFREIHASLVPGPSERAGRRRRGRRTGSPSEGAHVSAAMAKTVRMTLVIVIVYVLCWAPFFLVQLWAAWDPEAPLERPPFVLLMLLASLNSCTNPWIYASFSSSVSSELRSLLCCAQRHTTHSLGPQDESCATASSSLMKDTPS
Protocol: (§1) Nonspecific binding (5-10% of the total binding) was determined using 10 μM unlabeled AVP, and the binding reaction was terminated by filtration as described above for the [^3 H]OT binding assay.

uterine OT receptors = biological target: T2, uterine OT receptors (Rattus norvegicus, UniProt P70536); test: [^3 H]OT binding to uterine OT receptors, crude membrane preparation of uteri from DES-treated rats
T2 construct: from tissue; host or cells: uterus of DES-treated rats, crude membranes
T2 sequence (P70536 1-388): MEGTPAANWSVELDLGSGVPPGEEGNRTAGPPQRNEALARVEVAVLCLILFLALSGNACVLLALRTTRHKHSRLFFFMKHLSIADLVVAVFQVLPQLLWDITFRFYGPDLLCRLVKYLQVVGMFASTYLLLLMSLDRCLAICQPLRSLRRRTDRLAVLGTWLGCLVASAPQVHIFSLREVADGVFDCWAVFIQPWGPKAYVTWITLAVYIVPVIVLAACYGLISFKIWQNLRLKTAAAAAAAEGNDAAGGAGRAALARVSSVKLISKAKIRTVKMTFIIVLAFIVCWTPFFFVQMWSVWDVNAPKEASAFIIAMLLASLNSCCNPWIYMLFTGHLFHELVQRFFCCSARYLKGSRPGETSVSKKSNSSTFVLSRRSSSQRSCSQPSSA
Protocol: Competition studies were conducted at equilibrium (60 minutes; 22° C.) using 1 nM [^3 H]OT in the following assay buffer: 50 mM Tris-HCl, 5 mM MgCl2, and 0.1% BSA, pH 7.4.

AVP-V1 sites = biological target: T3, AVP-V1 sites (Rattus norvegicus, UniProt P30560); test: [^3 H]AVP binding to crude membrane preparation of male rat liver (AVP-V1 sites)
T3 construct: crude membrane preparation of male rat liver (AVP-V1 sites); from tissue; host or cells: male rat liver, crude membranes
T3 sequence (P30560 whole entry): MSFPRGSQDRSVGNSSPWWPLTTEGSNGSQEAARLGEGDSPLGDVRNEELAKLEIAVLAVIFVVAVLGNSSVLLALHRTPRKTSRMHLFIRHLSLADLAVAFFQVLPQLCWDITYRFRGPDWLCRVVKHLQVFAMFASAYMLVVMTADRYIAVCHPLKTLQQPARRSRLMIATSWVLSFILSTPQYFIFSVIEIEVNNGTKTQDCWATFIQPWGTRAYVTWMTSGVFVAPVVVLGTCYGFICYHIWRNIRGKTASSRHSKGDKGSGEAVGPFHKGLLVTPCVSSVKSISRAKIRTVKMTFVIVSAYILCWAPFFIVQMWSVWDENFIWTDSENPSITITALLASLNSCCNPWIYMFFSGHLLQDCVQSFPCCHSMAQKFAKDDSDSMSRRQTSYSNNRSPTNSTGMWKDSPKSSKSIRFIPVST
Protocol: as §1

[1] = read-out: Receptor Binding Results IC50 (nM) [^3 H]-AVP-V2
[2] = rat uterus membranes, 1 nM [^3 H]OT, read-out: Receptor Binding Results IC50 (nM) [^3 H]OT
[3] = read-out: Receptor Binding Results IC50 (nM) [^3 H]-AVP-V1
[4] = Receptor Binding Results IC50 (nM) [^3 H]-AVP-V2
[5] = Receptor Binding Results IC50 (nM) [^3 H]-AVP-V1
[6] = rat kidney medulla membranes, 2 nM [^3 H]AVP, read-out: Receptor Binding Results IC50 (nM) [^3 H]-AVP-V2

Row | Compound | IC50 (AVP-V2 sites; [1]) | IC50 (uterine OT receptors; [2]) | IC50 (AVP-V1 sites; [3]) | IC50 (AVP-V1 sites; [5]) | IC50 (AVP-V2 sites; [6]) | further results
1 | CC[C@H](C)[C@@H]1NC(=O)[C@@H](Cc2ccccc2)NC(=O)[C@@H]2CCCN2C(=O)[C@@H](Cc2ccccc2)N(C)C(=O)[C@H](CCCCNC(=O)OC(C)(C)C)NC(=O)[C@H]2CCC=NN2C1=O [Example 173, C-[D-Phenylalanyl-L-isoleucyl-D-Δ-piperazyl-L-(N^ε -t-Butyloxycarbonyl)-Lysl-M-Me-D-phenylalanyl-L-prolyl]] (cyclo(I[dPiz(1,6-dehydro)]K(Boc)[dNMeF]P[dF])) | 2800 nM | 71 nM | 1500 nM |  |  | 
2 | CN1C(=O)[C@@H]2CCCCN2C(=O)[C@H]2CCCCN2C(=O)[C@H](CCc2ccccc2)NC(=O)[C@@H](Cc2ccccc2)NC(=O)[C@@H]2CCCN2C(=O)[C@H]1Cc1ccccc1 [Example 135, c-[D-Phenylalanyl-L-homophenylalanyl-D-pipecolyl-L-pipecolyl-D-(N-methyl)phenylalanyl-L-prolyl]] (cyclo(P[dF][hPhe][dPip][Pip][dNMeF])) | 5000 nM | 3400 nM | 8800 nM |  |  | 
3 | CC(C)C[C@@H]1NC(=O)[C@@H](Cc2c[nH]c3ccccc23)NC(=O)[C@@H]2CCCN2C(=O)[C@@H](Cc2c[nH]cn2)NC(=O)[C@@H]2CCCCN2C(=O)[C@H]2CCCCN2C1=O [Example 21, Cyclo[D-tryptophanyl-L-leucyl-D-pipecolyl-L-pipecolyl-D-histidyl-L-prolyl]] (cyclo(L[dPip][Pip][dH]P[dW])) |  |  |  | 10000 nM |  | IC50 (AVP-V2 sites; [4]): > 10000 nM; IC50 (uterine OT receptors; Receptor Binding Results IC50 (nM) [^3 H]OT): 190 nM
4 | CC[C@H](C)[C@@H]1NC(=O)[C@@H](Cc2ccccc2)NC(=O)[C@@H]2CCCN2C(=O)[C@@H](Cc2c[nH]cn2)NC(=O)[C@H]2CN(C(=O)OCc3ccccc3)CCN2C(=O)[C@H]2CCCCN2C1=O [Example 82, c-[D-Phenylalanyl-L-isoleucinyl-D-pipecolyl-D-piperazin-2-yl(4Cbz)-D-histidinyl-L-prolyl]] (cyclo(I[dPip][dPip(4-aza,4-Cbz)][dH]P[dF])) |  | 73 nM |  | 10000 nM | 10000 nM | 
5 | CC[C@H](C)[C@@H]1NC(=O)[C@@H](Cc2ccccc2)NC(=O)[C@@H]2CCCN2C(=O)[C@@H](Cc2ccc(OCCN3CCOCC3)cc2)N(C)C(=O)[C@@H]2CCCCN2C(=O)[C@H]2CCCCN2C1=O [Example 50] (cyclo(I[dPip][Pip][dNMeY](Ethyl(2-morpholino))P[dF])) |  | 310 nM |  | > 10000 nM |  | IC50 (AVP-V2 sites; [4]): > 1000 nM
6 | CC[C@H](C)[C@@H]1NC(=O)[C@@H](Cc2ccccc2)NC(=O)[C@@H]2CCCN2C(=O)[C@@H](Cc2ccc(NC(=O)CN(C)C)cc2)NC(=O)[C@@H]2CCCCN2C(=O)[C@H]2CCCCN2C1=O [Example 49, Cyclo[D-phenylalanyl-L-isoleucyl-D-pipecolyl-L-pipecolyl-D-([N,N-dimethylglycyl]p-amino)phenylalanyl-L-prolyl]] (cyclo(I[dPip][Pip][dPhe(4-NH2)](Me2Gly)P[dF])) |  | 320 nM |  | 10000 nM | 10000 nM | 
7 | CC[C@H](C)[C@@H]1NC(=O)[C@@H](Cc2c[nH]c3ccccc23)NC(=O)[C@@H]2CCCN2C(=O)[C@@H](Cc2ccccc2)N(C)C(=O)[C@@H]2CN(CC(=O)O)CCN2C(=O)[C@H]2CCCCN2C1=O [Example 181, c-[D-Tryptophanyl-L-isoleucinyl-D-pipecolyl-L-piperazin-2-yl(4-carboxymethyl)-D-(N^α -Me)phenylalanyl-L-prolyl]] (cyclo(I[dPip][X10][dNMeF]P[dW])) |  | 100 nM |  | > 10000 nM |  | inhibition at 10 µM (AVP-V2 sites; 0.5 h, @ 10,000 (nM), read-out: [^3 H]-AVP-V2: percent inhibition of radioligand at the given concentration): 73%
8 | CC[C@H](C)[C@@H]1NC(=O)[C@@H](CCc2ccccc2)NC(=O)[C@@H]2CCCN2C(=O)[C@@H](Cc2ccccc2)N(C)C(=O)[C@@H]2CCCCN2C(=O)[C@H]2CCCCN2C1=O [Example 165, c-[D-Homophenylalanyl-L-isoleucyl-D-pipecolyl-L-pipecolyl-N-Me-D-phenylalanyl-L-prolyl]] (cyclo(I[dPip][Pip][dNMeF]P[d(hPhe)])) | 2600 nM | 150 nM | 6600 nM |  |  | 
9 | CN1C(=O)[C@@H]2CCCCN2C(=O)[C@H]2CCCCN2C(=O)[C@H](Cc2ccccc2)NC(=O)[C@@H](Cc2ccccc2)NC(=O)[C@@H]2CCCN2C(=O)[C@H]1Cc1ccccc1 [Example 136, c-[D-Phenylalanyl-L-phenylalanyl-D-pipecolyl-L-pipecolyl-D-(N-methyl)phenylalanyl-L-prolyl]] (cyclo(F[dPip][Pip][dNMeF]P[dF])) | 8000 nM | 410 nM |  | > 10000 nM |  | 
10 | CC[C@H](C)[C@@H]1NC(=O)[C@@H](Cc2ccc(OCc3ccccc3)cc2)NC(=O)[C@@H]2CCCN2C(=O)[C@@H](Cc2ccccc2)N(C)C(=O)[C@H](CCCCN)NC(=O)[C@H]2CCCCN2C1=O [Example 145, C-[D-(O-Benzyl)Tyrosyl-L-isoleucyl-D-pipecolyl-L-lysyl-D-(N-methyl)phenylalanyl-L-prolyl]] (cyclo(I[dPip]K[dNMeF]P[dY](Bn))) |  |  |  | > 10000 nM | 10000 nM | inhibition at 1 µM (uterine OT receptors; 1 h, @ 1,000 (nM), read-out: [^3 H]OT: percent inhibition of radioligand at the given concentration): 9%
11 | CC[C@H](C)[C@@H]1NC(=O)[C@@H](Cc2cccc3ccccc23)NC(=O)[C@@H]2CCCN2C(=O)[C@@H](Cc2ccccc2)N(C)C(=O)[C@H](CCCCNC(=O)OC(C)(C)C)NC(=O)[C@H]2CCCCN2C1=O [Example 139, C-[D-1-Napthylalanyl-L-isoleucyl-D-pipecolyl-L-(N-t-butyloxycarbonyl)lysyl-D-(N-methyl)phenylalanyl-L-prolyl]] (cyclo(I[dPip]K(Boc)[dNMeF]P[d1Nal])) | 8000 nM |  | 8000 nM |  |  | inhibition at 0.1 µM (uterine OT receptors; 1 h, @ 100 (nM), read-out: [^3 H]OT: percent inhibition of radioligand at the given concentration): 24%
12 | CCOc1ccc(C[C@H]2NC(=O)[C@@H]3CCCN3C(=O)[C@@H](Cc3ccccc3)NC(=O)[C@H](CC(N)=O)NC(=O)[C@@H]([C@H](C)O)NC(=O)[C@H]([C@@H](C)CC)NC2=O)cc1 [Example 99] (cyclo([dY](Et)I[dT]N[dF]P)) |  | > 10000 nM |  | > 10000 nM | > 10000 nM | 
13 | c-[D,L-3-(3-(5-Methyl)indolyl)alanyl-L-isoleucyl-D-pipecolyl-L-pipecolyl-D- histidyl-L-prolyl] [Example 154] |  | 680 nM |  |  | 7300 nM | IC50 (AVP-V1 sites; rat liver membranes, 1 nM [^3 H]AVP, read-out: Receptor Binding Results IC50 (nM) [^3 H]-AVP-V1): 13000 nM
14 | CC[C@H](C)[C@@H]1NC(=O)[C@@H](Cc2ccccc2)NC(=O)[C@@H]2CCCN2C(=O)[C@@H](Cc2ccccc2)N(C)C(=O)[C@H](CC(=O)NCCN)NC(=O)[C@H]2CCCCN2C1=O [Example 119, c-[D-Phenylalanyl-L-isoleucyl-D-pipecolyl-N^β -(aminoethyl)-L-asparagyl-N-methyl-D-phenylalanyl-L-prolyl]] (cyclo(D(Ethylenediamine)[dNMeF]P[dF]I[dPip])) | 3100 nM | 260 nM | 7300 nM |  |  | 
15 | CC[C@H](C)[C@H]1C(=O)N2CCCC[C@@H]2C(=O)N2CCCC[C@H]2C(=O)N(C)[C@H](Cc2ccccc2)C(=O)N2CCC[C@H]2C(=O)N(C)[C@H](Cc2ccccc2)C(=O)N1C [Example 15, C-[D-(N^α methyl)phenylalanyl-L-(N^α methyl)isoleucyl-D-pipecolyl-L-pipecolyl-D-(N^α methyl)phenylalanyl-L-prolyl]] (cyclo([NMeI][dPip][Pip][dNMeF]P[dNMeF])) |  | > 10000 nM |  | > 10000 nM | > 10000 nM | 
16 | CC[C@H](C)[C@H]1C(=O)N2CCCC[C@@H]2C(=O)N2CCCC[C@H]2C(=O)N(C)[C@H](Cc2ccccc2)C(=O)N2CCC[C@H]2C(=O)N(C)[C@H](CCc2ccccc2)C(=O)N1C [Example 166] (cyclo([NMeI][dPip][Pip][dNMeF]P[dNMehPhe])) | > 3000 nM | 23000 nM | > 3000 nM |  |  | 
